Measurements reported in US20080269241A1, “BICYCLIC AMINOPROPYL TETRAHYDRO-PYRAZOLO-PYRIDINE MODULATORS OF CATHEPSIN S” (priority 2007, published 2008).
Like-named read-outs stand apart in the source and are kept apart here.

Target: T1, human cathepsin S (CatS) (Homo sapiens, UniProt P25774)
T1 construct: made in house; host or cells: baculovirus system (insect cells)
Assay: Recombinant human cathepsin S (CatS) fluorogenic substrate inhibition assay
Assay type: biochemical
Experimental: Recombinant human cathepsin S (CatS) was expressed in the baculovirus system and purified in one step with a thiopropyl-sepharose column. […] The assay is run in 150 mM sodium acetate pH 5.0 containing 1.5 mM DTT and 150 mM NaCl. […] Measurements are taken every min for 20 min. The rate is calculated from the slope of the increase in fluorescence and the percent inhibition is calculated from this.

[1] = recombinant human CatS, 10 μM Z-Valine-Valine-Arginine-AMC, pH 5.0, average of results obtained, read-out: CatS IC50

T1 sequence (P25774 115-331): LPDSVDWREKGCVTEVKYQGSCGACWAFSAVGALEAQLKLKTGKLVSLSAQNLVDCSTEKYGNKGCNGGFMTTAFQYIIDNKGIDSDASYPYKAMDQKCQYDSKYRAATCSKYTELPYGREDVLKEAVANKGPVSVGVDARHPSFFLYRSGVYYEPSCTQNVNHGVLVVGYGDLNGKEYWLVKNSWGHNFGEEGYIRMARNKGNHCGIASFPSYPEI

IC50 [1] [µM] | IC50 [µM] | SMILES
2.25 |  | CS(=O)(=O)N1CCc2c(c(-c3ccc(Cl)c(CNc4ccccc4)c3)nn2CCCN2CCC(N3CCCC3=O)CC2)C1 [Example 207, 1-(1-{3-[3-(4-Chloro-3-phenylaminomethyl-phenyl)-5-methanesulfonyl-4,5,6,7-tetrahydro-pyrazolo[4,3-c]pyridin-1-yl]-propyl}-piperidin-4-yl)-pyrrolidin-2-one]
0.28 |  | Cc1ccc(NCc2cc(-c3nn(CCCN4CCC(N5CCCC5=O)CC4)c4c3CN(S(C)(=O)=O)CC4)ccc2Cl)cc1 [Example 208, 1-[1-(3-{3-[4-Chloro-3-(p-tolylamino-methyl)-phenyl]-5-methanesulfonyl-4,5,6,7-tetrahydro-pyrazolo[4,3-c]pyridin-1-yl}-propyl)-piperidin-4-yl]-pyrrolidin-2-one]
0.66 |  | COc1ccc(NCc2cc(-c3nn(CCCN4CCC(N5CCCC5=O)CC4)c4c3CN(S(C)(=O)=O)CC4)ccc2Cl)cc1 [Example 209, 1-{1-[3-(3-{4-Chloro-3-[(4-methoxy-phenylamino)-methyl]-phenyl}-5-methanesulfonyl-4,5,6,7-tetrahydro-pyrazolo[4,3-c]pyridin-1-yl)-propyl]-piperidin-4-yl}-pyrrolidin-2-one]
0.63 |  | CS(=O)(=O)N1CCc2c(c(-c3ccc(Cl)c(CNc4cccc(-c5ccccc5)c4)c3)nn2CCCN2CCC(N3CCCC3=O)CC2)C1 [Example 210, 1-[1-(3-{3-[3-(Biphenyl-3-ylaminomethyl)-4-chloro-phenyl]-5-methanesulfonyl-4,5,6,7-tetrahydro-pyrazolo[4,3-c]pyridin-1-yl}-propyl)-piperidin-4-yl]-pyrrolidin-2-one]
0.37 |  | CC(C)c1cccc(NCc2cc(-c3nn(CCCN4CCC(N5CCCC5=O)CC4)c4c3CN(S(C)(=O)=O)CC4)ccc2Cl)c1 [Example 211, 1-{1-[3-(3-{4-Chloro-3-[(3-isopropyl-phenylamino)-methyl]-phenyl}-5-methanesulfonyl-4,5,6,7-tetrahydro-pyrazolo[4,3-c]pyridin-1-yl)-propyl]-piperidin-4-yl}-pyrrolidin-2-one]
0.6 |  | CN(C)c1ccc2c(n1)n(C1CCN(CC(O)Cn3nc(-c4ccc(C(F)(F)F)c(CN)c4)c4c3CCN(S(C)(=O)=O)C4)CC1)c(=O)n2C (stereo not shown) [Example 216, 3-(1-{3-[3-(3-Aminomethyl-4-trifluoromethyl-phenyl)-5-methanesulfonyl-4,5,6,7-tetrahydro-pyrazolo[4,3-c]pyridin-1-yl]-2-hydroxy-propyl}-piperidin-4-yl)-5-dimethylamino-1-methyl-1,3-dihydro-imidazo[4,5-b]pyridin-2-one]
0.6 |  | CS(=O)(=O)c1csc(C(=O)NCc2cc(-c3nn(CC(O)CN4CCC(N5CCCC5=O)CC4)c4c3CN(S(C)(=O)=O)CC4)ccc2C(F)(F)F)c1Cl (stereo not shown) [Example 217, 3-Chloro-4-methanesulfonyl-thiophene-2-carboxylic acid 5-(1-{2-hydroxy-3-[4-(2-oxo-pyrrolidin-1-yl)-piperidin-1-yl]-propyl}-5-methanesulfonyl-4,5,6,7-tetrahydro-1H-pyrazolo[4,3-c]pyridin-3-yl)-2-trifluoromethyl-benzylamide]
0.7 |  | CC1CCCN(CC(=O)NCc2cc(-c3nn(CCCN4CCC(N5CCCC5=O)CC4)c4c3CN(S(C)(=O)=O)CC4)ccc2C(F)(F)F)C1 (stereo not shown) [Example 223, N-[5-(5-Methanesulfonyl-1-{3-[4-(2-oxo-pyrrolidin-1-yl)-piperidin-1-yl]-propyl}-4,5,6,7-tetrahydro-1H-pyrazolo[4,3-c]pyridin-3-yl)-2-trifluoromethyl-benzyl]-2-(3-methyl-piperidin-1-yl)-acetamide]
0.76 |  | CS(=O)(=O)N1CCc2c(c(-c3ccc(Cl)c(NC(=O)c4ccc([N+](=O)[O-])cc4)c3)nn2CCCN2CCN(c3cccc(Cl)c3)CC2)C1 [Example 226, N-[2-Chloro-5-(1-{3-[4-(3-chloro-phenyl)-piperazin-1-yl]-propyl}-5-methanesulfonyl-4,5,6,7-tetrahydro-1H-pyrazolo[4,3-c]pyridin-3-yl)-phenyl]-4-nitro-benzamide]
0.76 |  | COc1ccc(C(=O)Nc2cc(-c3nn(CCCN4CCN(c5cccc(Cl)c5)CC4)c4c3CN(S(C)(=O)=O)CC4)ccc2Cl)cc1 [Example 228, N-[2-Chloro-5-(1-{3-[4-(3-chloro-phenyl)-piperazin-1-yl]-propyl}-5-methanesulfonyl-4,5,6,7-tetrahydro-1H-pyrazolo[4,3-c]pyridin-3-yl)-phenyl]-4-methoxy-benzamide]
0.78 |  | CCc1ccc(C(=O)Nc2cc(-c3nn(CCCN4CCN(c5cccc(Cl)c5)CC4)c4c3CN(S(C)(=O)=O)CC4)ccc2Cl)cc1 [Example 230, N-[2-Chloro-5-(1-{3-[4-(3-chloro-phenyl)-piperazin-1-yl]-propyl}-5-methanesulfonyl-4,5,6,7-tetrahydro-1H-pyrazolo[4,3-c]pyridin-3-yl)-phenyl]-4-ethyl-benzamide]
0.83 |  | CS(=O)(=O)N1CCc2c(c(-c3ccc(Cl)c(NC(=O)c4ccc(C(F)(F)F)cc4)c3)nn2CCCN2CCN(c3cccc(Cl)c3)CC2)C1 [Example 233, N-[2-Chloro-5-(1-{3-[4-(3-chloro-phenyl)-piperazin-1-yl]-propyl}-5-methanesulfonyl-4,5,6,7-tetrahydro-1H-pyrazolo[4,3-c]pyridin-3-yl)-phenyl]-4-trifluoromethyl-benzamide]
0.84 |  | CS(=O)(=O)N1CCc2c(c(-c3ccc(Cl)c(NC(=O)c4ccc(F)cc4)c3)nn2CCCN2CCN(c3cccc(Cl)c3)CC2)C1 [Example 234, N-[2-Chloro-5-(1-{3-[4-(3-chloro-phenyl)-piperazin-1-yl]-propyl}-5-methanesulfonyl-4,5,6,7-tetrahydro-1H-pyrazolo[4,3-c]pyridin-3-yl)-phenyl]-4-fluoro-benzamide]
5.3 |  | CN(C)CC(=O)NCc1cc(-c2nn(CC(O)CN3CCC(N4CCCC4)CC3)c3c2CN(S(C)(=O)=O)CC3)ccc1C(F)(F)F (stereo not shown) [Example 243, 2-Dimethylamino-N-(5-{1-[2-hydroxy-3-(4-pyrrolidin-1-yl-piperidin-1-yl)-propyl]-5-methanesulfonyl-4,5,6,7-tetrahydro-1H-pyrazolo[4,3-c]pyridin-3-yl}-2-trifluoromethyl-benzyl)-acetamide]
0.12 |  | CC(C)CC(=O)NCc1cc(-c2nn(CC(O)CN3CCC(N4CCCC4)CC3)c3c2CN(S(C)(=O)=O)CC3)ccc1C(F)(F)F (stereo not shown) [Example 248, N-(5-{1-[2-Hydroxy-3-(4-pyrrolidin-1-yl-piperidin-1-yl)-propyl]-5-methanesulfonyl-4,5,6,7-tetrahydro-1H-pyrazolo[4,3-c]pyridin-3-yl}-2-trifluoromethyl-benzyl)-3-methyl-butyramide]
0.14 |  | CC(C)CC(=O)NCc1cc(-c2nn(CC(O)CN3CCC(N4CCOC4=O)CC3)c3c2CN(S(C)(=O)=O)CC3)ccc1C(F)(F)F (stereo not shown) [Example 252, N-[5-(1-{2-Hydroxy-3-[4-(2-oxo-oxazolidin-3-yl)-piperidin-1-yl]-propyl}-5-methanesulfonyl-4,5,6,7-tetrahydro-1H-pyrazolo[4,3-c]pyridin-3-yl)-2-trifluoromethyl-benzyl]-3-methyl-butyramide]
0.09 |  | CC(C)CC(=O)NCc1cc(-c2nn(CC(O)CN3CCC(N4CC(O)CC4=O)CC3)c3c2CN(S(C)(=O)=O)CC3)ccc1C(F)(F)F (stereo not shown) [Example 253, N-[5-(1-{2-Hydroxy-3-[4-(4-hydroxy-2-oxo-pyrrolidin-1-yl)-piperidin-1-yl]-propyl}-5-methanesulfonyl-4,5,6,7-tetrahydro-1H-pyrazolo[4,3-c]pyridin-3-yl)-2-trifluoromethyl-benzyl]-3-methyl-butyramide]
0.12 |  | CC(C)CC(=O)NCc1cc(-c2nn(CC(O)CN3CCC(N4CCOCC4)CC3)c3c2CN(S(C)(=O)=O)CC3)ccc1C(F)(F)F (stereo not shown) [Example 254, N-(5-{1-[2-Hydroxy-3-(4-morpholin-4-yl-piperidin-1-yl)-propyl]-5-methanesulfonyl-4,5,6,7-tetrahydro-1H-pyrazolo[4,3-c]pyridin-3-yl}-2-trifluoromethyl-benzyl)-3-methyl-butyramide]
0.07 |  | CC(C)CC(=O)NCc1cc(-c2nn(CC(O)CN3CCC(c4nnnn4Cc4ccccc4)CC3)c3c2CN(S(C)(=O)=O)CC3)ccc1C(F)(F)F (stereo not shown) [Example 256, N-[5-(1-{3-[4-(1-Benzyl-1H-tetrazol-5-yl)-piperidin-1-yl]-2-hydroxy-propyl}-5-methanesulfonyl-4,5,6,7-tetrahydro-1H-pyrazolo[4,3-c]pyridin-3-yl)-2-trifluoromethyl-benzyl]-3-methyl-butyramide]
0.01 |  | CC(C)CC(=O)NCc1cc(-c2nn(CC(O)CN3CCC(c4ccccn4)CC3)c3c2CN(S(C)(=O)=O)CC3)ccc1C(F)(F)F (stereo not shown) [Example 257, N-(5-{1-[2-Hydroxy-3-(3′,4′,5′,6′-tetrahydro-2′H-[2,4′]bipyridinyl-1′-yl)-propyl]-5-methanesulfonyl-4,5,6,7-tetrahydro-1H-pyrazolo[4,3-c]pyridin-3-yl}-2-trifluoromethyl-benzyl)-3-methyl-butyramide]
 | 0.02 | COc1ccccc1C1CCN(CC(O)Cn2nc(-c3ccc(C(F)(F)F)c(CNC(=O)CC(C)C)c3)c3c2CCN(S(C)(=O)=O)C3)CC1 (stereo not shown) [Example 259, N-[5-(1-{2-Hydroxy-3-[4-(2-methoxy-phenyl)-piperidin-1-yl]-propyl}-5-methanesulfonyl-4,5,6,7-tetrahydro-1H-pyrazolo[4,3-c]pyridin-3-yl)-2-trifluoromethyl-benzyl]-3-methyl-butyramide]

SMILES | IC50 [1] [µM] | IC50 [µM]
CC(C)CC(=O)NCc1cc(-c2nn(CC(O)CN3CCC(O)(c4ccccn4)CC3)c3c2CN(S(C)(=O)=O)CC3)ccc1C(F)(F)F (stereo not shown) [Example 258, N-(5-{1-[2-Hydroxy-3-(4′-hydroxy-3′,4′,5′,6′-tetrahydro-2′H-[2,4′]bipyridinyl-1′-yl)-propyl]-5-methanesulfonyl-4,5,6,7-tetrahydro-1H-pyrazolo[4,3-c]pyridin-3-yl}-2-trifluoromethyl-benzyl)-3-methyl-butyramide] | 0.04 | 
